This note sets out measurements from ChEMBL document CHEMBL5661943, “ASAP - In vitro antiviral effect” (2024).

Assay [1] has as its system Zika virus. The assay can be described thus: EC50 is reported via analysis of immunofluorescence staining. The assay has been performed by Icahn School of Medicine at Mount Sinai. It counts as functional, organism-based, Chlorocebus sabaeus, VeroE6/TMPRSS2. Conditions: Zika virus.
Assay [2] concerns dengue virus type 2. The assay can be described thus: Functional immunofluorescence assay to measure dose dependent changes in antiviral-drug inhibitory efficacy against Dengue virus type 2 Thailand/16681/84 in Vero E6/TMPRSS2 cells (cotreated with P-gp inhibitor, Elacridar). Cells are treated with antiviral candidates that are serially diluted, following infection, cells are fixed. EC50 is reported via analysis of immunofluorescence staining. The assay has been performed by Icahn School of Medicine at Mount Sinai. The class given is organism-based, Chlorocebus sabaeus, VeroE6/TMPRSS2. As to conditions: Dengue virus.

A word on the EC50: it is the concentration needed to bring the measured effect to its halfway point. The EC90 is the concentration needed for an effect of 90%. As to `NCc1cccc([C@@H]2C[C@H]2c2cc(Cl)cc(NC(=O)OCc3ccccc3)c2)c1`, the EC50 in assay [1] (VeroE6/TMPRSS2) and in assay [2] (VeroE6/TMPRSS2) was above 5.56 µM each time. The EC90 in assay [1] (VeroE6/TMPRSS2, Maximum measured 125.497 %, Minimum measured 83.326 %, P-gp concentration 2 uM, P-gp inhibitor Elacidar) is above 5.56 µM; in assay [2] (VeroE6/TMPRSS2, Maximum measured 134.824 %, Minimum measured 97.991 %, P-gp concentration 2 uM, P-gp inhibitor Elacidar), above 5.56 µM.

For the compound `NCc1cccc(NC(=O)C[C@H](NC(=O)OCc2ccccc2)c2ccc(OCc3ccccc3)c(Br)c2)c1`, the results for the EC50 in assay [1] (VeroE6/TMPRSS2) and in assay [2] (VeroE6/TMPRSS2) were 1.7 µM and above 16.7 µM, respectively. In addition, the EC90 is above 50 µM in assay [1] (VeroE6/TMPRSS2, Baseline response 0 %, Hill slope -0.518, Maximum measured 120.113 %, Maximum response 100 %, Minimum measured 9.459 %, P-gp concentration 2 uM, R squared 0.639, P-gp inhibitor Elacidar) and above 16.7 µM in assay [2] (VeroE6/TMPRSS2, Baseline response 0 %, Hill slope 0.065, Maximum measured 60.527 %, Maximum response 100 %, Minimum measured 30.522 %, P-gp concentration 2 uM, R squared 0.087, P-gp inhibitor Elacidar).

For the compound `CC[C@H](Cc1nnn[nH]1)c1ccc(NC(=O)c2cc(Cl)cc(-n3cccc3)c2)cc1`, the EC50 in assay [1] (VeroE6/TMPRSS2) stood at 46.8 µM; in assay [2] (VeroE6/TMPRSS2) it was 42.5 µM. The EC90 in assay [1] (VeroE6/TMPRSS2, Baseline response 0 %, Hill slope -17.276, Maximum measured 183.537 %, Maximum response 154.104 %, Minimum measured 37.545 %, P-gp concentration 2 uM, R squared 0.817, P-gp inhibitor Elacidar) was above 50 µM; in assay [2] (VeroE6/TMPRSS2, Baseline response 0 %, Hill slope -23.366, Maximum measured 115.315 %, Maximum response 100 %, Minimum measured 2.218 %, P-gp concentration 2 uM, R squared 0.505, P-gp inhibitor Elacidar) it was 46.7 µM.

For the compound `O=S(=O)(Nc1cccc(-c2nnn[nH]2)c1)c1cc(Cl)cc(-c2ccccc2)c1`, the figures for the concentration for a half-maximal effect (EC50) in assay [1] (VeroE6/TMPRSS2) and in assay [2] (VeroE6/TMPRSS2) were above 50 µM and 0.611 µM, respectively. Also, the EC90 was above 50 µM in assay [1] (VeroE6/TMPRSS2, Maximum measured 155.311 %, Minimum measured 93.761 %, P-gp concentration 2 uM, P-gp inhibitor Elacidar) and above 50 µM in assay [2] (VeroE6/TMPRSS2, Baseline response 0 %, Hill slope -0.304, Maximum measured 103.918 %, Maximum response 100 %, Minimum measured 7.141 %, P-gp concentration 2 uM, R squared 0.457, P-gp inhibitor Elacidar).

As for `C[C@@H](N)c1cccc(NC(=O)[C@H]2[C@H]3CCCCC[C@H]3[C@H]2NC(=O)OCc2ccccc2)c1`, the EC50 in assay [1] (VeroE6/TMPRSS2) and in assay [2] (VeroE6/TMPRSS2) was above 5.56 µM each time. Besides, the EC90 in assay [1] (VeroE6/TMPRSS2, Maximum measured 138.527 %, Minimum measured 84.272 %, P-gp concentration 2 uM, P-gp inhibitor Elacidar) is above 5.56 µM; in assay [2] (VeroE6/TMPRSS2, Baseline response 0 %, Hill slope -0.267, Maximum measured 104.495 %, Maximum response 100 %, Minimum measured 46.505 %, P-gp concentration 2 uM, R squared 0.299, P-gp inhibitor Elacidar), above 5.56 µM.

In the case of `CCOc1cccc(-c2ccc(S(=O)(=O)Nc3cc4c(cc3C(=O)O)CCC4)cc2)c1`, the half-maximal effective concentration (EC50) in assay [1] (VeroE6/TMPRSS2) is above 50 µM; in assay [2] (VeroE6/TMPRSS2), above 16.7 µM. In addition, the EC90 in assay [1] (VeroE6/TMPRSS2, Baseline response 0 %, Hill slope -16.078, Maximum measured 130.08 %, Maximum response 100 %, Minimum measured 52.734 %, P-gp concentration 2 uM, R squared 0.304, P-gp inhibitor Elacidar) was above 50 µM; in assay [2] (VeroE6/TMPRSS2, Baseline response 0 %, Hill slope -0.37, Maximum measured 131.408 %, Maximum response 100 %, Minimum measured 56.89 %, P-gp concentration 2 uM, R squared 0.244, P-gp inhibitor Elacidar), above 16.7 µM.

Turning to `O=C(Nc1cc(Cl)cc(C(=O)Nc2cccc([C@H]3CCNC3)c2)c1)OCc1ccccc1`, the values for the EC50 in assay [1] (VeroE6/TMPRSS2) and in assay [2] (VeroE6/TMPRSS2) were 42.7 µM and above 5.56 µM, respectively. Besides, the EC90 in assay [1] (VeroE6/TMPRSS2, Baseline response 0 %, Hill slope -21.619, Maximum measured 167.541 %, Maximum response 100 %, Minimum measured 3.263 %, P-gp concentration 2 uM, R squared 0.234, P-gp inhibitor Elacidar) was 47.3 µM; in assay [2] (VeroE6/TMPRSS2, Maximum measured 260.488 %, Minimum measured 106.051 %, P-gp concentration 2 uM, P-gp inhibitor Elacidar), above 5.56 µM.

`CCOC(=O)Nc1cc(Cl)cc(C(=O)Nc2cccc(CN)c2)c1`: the EC50 in assay [1] (VeroE6/TMPRSS2) is above 50 µM; in assay [2] (VeroE6/TMPRSS2) it was above 16.7 µM. The EC90 is above 50 µM in assay [1] (VeroE6/TMPRSS2, Maximum measured 144.074 %, Minimum measured 100.96 %, P-gp concentration 2 uM, P-gp inhibitor Elacidar) and above 16.7 µM in assay [2] (VeroE6/TMPRSS2, Maximum measured 179.291 %, Minimum measured 97.679 %, P-gp concentration 2 uM, P-gp inhibitor Elacidar).

`NCc1ccc(F)c(NC(=O)c2cc(Cl)cc(NC(=O)OCc3ccccc3)c2)c1`: the EC50 in assay [1] (VeroE6/TMPRSS2) and in assay [2] (VeroE6/TMPRSS2) was above 5.56 µM in each case. In addition, the EC90 was above 5.56 µM in assay [1] (VeroE6/TMPRSS2, Maximum measured 191.718 %, Minimum measured 113.213 %, P-gp concentration 2 uM, P-gp inhibitor Elacidar) and above 5.56 µM in assay [2] (VeroE6/TMPRSS2, Maximum measured 158.385 %, Minimum measured 97.578 %, P-gp concentration 2 uM, P-gp inhibitor Elacidar).

Consider `O=C(O)CCc1ccc(NC(=O)c2cc(Cl)cc(NC(=O)OCc3ccccc3)c2)cc1`, for which the EC50 in assay [1] (VeroE6/TMPRSS2) is above 50 µM; in assay [2] (VeroE6/TMPRSS2), 23.4 µM. In addition, the EC90 in assay [1] (VeroE6/TMPRSS2, Maximum measured 138.099 %, Minimum measured 61.86 %, P-gp concentration 2 uM, P-gp inhibitor Elacidar) is above 50 µM; in assay [2] (VeroE6/TMPRSS2), 44.4 µM.

For the compound `O=C(Nc1cc(Cl)cc(C(=O)Nc2cc(Br)cc(-c3nnn[nH]3)c2)c1)OCc1ccccc1`, the EC50 in assay [1] (VeroE6/TMPRSS2) was 41.4 µM; in assay [2] (VeroE6/TMPRSS2), 11.4 µM. Also, the EC90 was 44.1 µM in assay [1] (VeroE6/TMPRSS2, Baseline response 0 %, Hill slope -35.305, Maximum measured 180.813 %, Maximum response 100 %, Minimum measured 13.985 %, P-gp concentration 2 uM, R squared 0.137, P-gp inhibitor Elacidar) and above 16.7 µM in assay [2] (VeroE6/TMPRSS2, Baseline response 0 %, Hill slope -3.68, Maximum measured 234.045 %, Maximum response 186.52 %, Minimum measured 36.837 %, P-gp concentration 2 uM, R squared 0.67, P-gp inhibitor Elacidar).

Consider `CC[C@H](Cc1nn[nH]n1)c1ccc(N[C@H](C(=O)NC)c2cc(Cl)cc(NC(=O)OCc3ccccc3)c2)cc1`, for which the EC50 in assay [1] (VeroE6/TMPRSS2) and in assay [2] (VeroE6/TMPRSS2) was above 50 µM each time. Moreover, the EC90 in assay [1] (VeroE6/TMPRSS2, Maximum measured 168.95 %, Minimum measured 107.074 %, P-gp concentration 2 uM, P-gp inhibitor Elacidar) is above 50 µM; in assay [2] (VeroE6/TMPRSS2, Baseline response 0 %, Hill slope -0.218, Maximum measured 117.472 %, Maximum response 100 %, Minimum measured 37.097 %, P-gp concentration 2 uM, R squared 0.193, P-gp inhibitor Elacidar) it was above 50 µM.

For the compound `CC[C@H](Cc1nnn[nH]1)c1ccc(NC(=O)[C@H]2[C@H]3CCCCC[C@H]3[C@H]2NC(=O)OCc2ccccc2)cc1`, the EC50 in assay [1] (VeroE6/TMPRSS2) is above 50 µM; in assay [2] (VeroE6/TMPRSS2), 16.1 µM. The EC90 in assay [1] (VeroE6/TMPRSS2, Baseline response 0 %, Hill slope -0.151, Maximum measured 102.715 %, Maximum response 100 %, Minimum measured 55.5 %, P-gp concentration 2 uM, R squared 0.202, P-gp inhibitor Elacidar) is above 50 µM; in assay [2] (VeroE6/TMPRSS2), 44.8 µM.

Take `CC(=O)Nc1cc(Cl)cc(C(=O)Nc2cccc(CN)c2)c1`: the figures for the EC50 in assay [1] (VeroE6/TMPRSS2) and in assay [2] (VeroE6/TMPRSS2) were above 50 µM and above 16.7 µM, respectively. In addition, the EC90 was above 50 µM in assay [1] (VeroE6/TMPRSS2, Baseline response 0 %, Hill slope 0.296, Maximum measured 131.154 %, Maximum response 100 %, Minimum measured 80.704 %, P-gp concentration 2 uM, R squared 0.041, P-gp inhibitor Elacidar) and above 16.7 µM in assay [2] (VeroE6/TMPRSS2, Maximum measured 143.919 %, Minimum measured 91.997 %, P-gp concentration 2 uM, P-gp inhibitor Elacidar).

Take `NCc1cccc(NC(=O)[C@H]2[C@H]3CCCCC[C@H]3[C@H]2NC(=O)OCc2ccccc2)c1`: the EC50 in assay [1] (VeroE6/TMPRSS2) was 1.43 µM; in assay [2] (VeroE6/TMPRSS2), above 5.56 µM. Further, the EC90 is 9.76 µM in assay [1] (VeroE6/TMPRSS2) and above 5.56 µM in assay [2] (VeroE6/TMPRSS2, Baseline response 0 %, Hill slope -0.21, Maximum measured 66.083 %, Maximum response 100 %, Minimum measured 25.848 %, P-gp concentration 2 uM, R squared 0.326, P-gp inhibitor Elacidar).

Turning to `Cc1ccc(-c2nnn[nH]2)cc1NC(=O)c1cc(Cl)cc(NC(=O)OCc2ccccc2)c1`, the EC50 in assay [1] (VeroE6/TMPRSS2) is above 16.7 µM; in assay [2] (VeroE6/TMPRSS2), 40.5 µM. The EC90 in assay [1] (VeroE6/TMPRSS2, Maximum measured 182.406 %, Minimum measured 123.883 %, P-gp concentration 2 uM, P-gp inhibitor Elacidar) is above 16.7 µM; in assay [2] (VeroE6/TMPRSS2, Baseline response 0 %, Hill slope -16.355, Maximum measured 369.361 %, Maximum response 277.036 %, Minimum measured 8.558 %, P-gp concentration 2 uM, R squared 0.765, P-gp inhibitor Elacidar), 46.3 µM.

As for `CCCC(=O)Nc1cc(Cl)cc(C(=O)Nc2cccc(CN)c2)c1`, the EC50 in assay [1] (VeroE6/TMPRSS2) was above 16.7 µM; in assay [2] (VeroE6/TMPRSS2) it was above 50 µM. For the same compound, the EC90 is above 16.7 µM in assay [1] (VeroE6/TMPRSS2, Baseline response 0 %, Hill slope -0.382, Maximum measured 108.39 %, Maximum response 100 %, Minimum measured 82.052 %, P-gp concentration 2 uM, R squared 0.052, P-gp inhibitor Elacidar) and above 50 µM in assay [2] (VeroE6/TMPRSS2, Maximum measured 163.615 %, Minimum measured 116.069 %, P-gp concentration 2 uM, P-gp inhibitor Elacidar).

Take `O=C(Nc1cc(Cl)cc(C(=O)Nc2ccc3c(c2)CNCCO3)c1)OCc1ccccc1`: the EC50 in assay [1] (VeroE6/TMPRSS2) is 5.26 µM; in assay [2] (VeroE6/TMPRSS2), 0.669 µM. Besides, the EC90 was above 5.56 µM in assay [1] (VeroE6/TMPRSS2, Baseline response 0 %, Hill slope -16.118, Maximum measured 155.613 %, Maximum response 100 %, Minimum measured 29.546 %, P-gp concentration 2 uM, R squared 0.374, P-gp inhibitor Elacidar) and above 5.56 µM in assay [2] (VeroE6/TMPRSS2, Baseline response 0 %, Hill slope -1.036, Maximum measured 111.022 %, Maximum response 100 %, Minimum measured 5.282 %, P-gp concentration 2 uM, R squared 0.817, P-gp inhibitor Elacidar).

With `CC[C@H](Cc1nnn[nH]1)c1ccc(NC(=O)c2cc(Cl)cc(C3CC3)c2)cc1`, the EC50 in assay [1] (VeroE6/TMPRSS2) was above 50 µM; in assay [2] (VeroE6/TMPRSS2) it was above 16.7 µM. The EC90 was above 50 µM in assay [1] (VeroE6/TMPRSS2, Maximum measured 167.989 %, Minimum measured 95.132 %, P-gp concentration 2 uM, P-gp inhibitor Elacidar) and above 16.7 µM in assay [2] (VeroE6/TMPRSS2, Maximum measured 194.23 %, Minimum measured 94.649 %, P-gp concentration 2 uM, P-gp inhibitor Elacidar).
